What all share (experiment): NCI tumour cell line growth inhibition, 48 h
Experiment [1] relates to HOP-62 NSCLC.
Experiment [2] concerns UACC-62 melanoma.
Experiment [3] relates to MALME-3M melanoma.
Experiment [4] relates to UO-31 renal.
Experiment [5] relates to UACC-257 melanoma.
Experiment [6] deals with SK-MEL-5 melanoma.
The subject of experiment [7] is SNB-75 CNS.
In experiment [8] the test system is M14 melanoma.
The test system of experiment [9] is HCT-15 colon.
Experiment [10] has as its system COLO 205 colon.
Experiment [11] deals with KM12 colon.
In experiment [12] the test system is SF-268 CNS.
Experiment [13] relates to NCI/ADR-RES ovarian.
Experiment [14] deals with MDA-MB-435.
The subject of experiment [15] is HOP-92 NSCLC.

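Five compound concentrations were applied to cells in 96-well plates for 48 hours; endpoints were derived by simple linear interpolation of the resulting dose-response curve. The concentration for 50% growth inhibition is given as GI50. TGI: concentration producing complete growth inhibition.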

Consider `O=C(CSc1nnc(Cc2ccccc2)o1)Nc1ccccc1`, for which the TGI in [1], in [2], in [3], in experiment [4], in experiment [5] and in [6] was more than 100 µM in each case. Besides, the TGI in experiment [7], in experiment [8], in experiment [9], in [10], in experiment [11] and in [12] was more than 100 µM throughout.

Regarding `COC1=CC(=O)C2=C(C1=O)[C@H]1CC[C@]3(C)[C@@H](O)CC[C@H]3[C@@H]1CC2`, the TGI in experiment [1] stood at 29.7 µM; in experiment [2] it was 31.2 µM; in experiment [4], 43.5 µM; in experiment [5], 30 µM; in [6] it was 28.8 µM; in [13], 84 µM. Also, the TGI in experiment [7] was found to be 36.5 µM; in experiment [8], 31.3 µM; in experiment [9], 31.9 µM; in experiment [14], 33.3 µM; in experiment [10], 22.5 µM; in experiment [15], 37.5 µM. The TGI in [11] was found to be 32.3 µM; in experiment [12], 31 µM.

In the case of `CC(=O)Oc1cc2c(cc1OC(C)=O)OCC(c1ccccc1)C2` (configuration not stated), the TGI in experiment [1] was determined as 54.3 µM; in [2] it was 53.3 µM; in [3], 37.9 µM; in [4], 58.4 µM; in experiment [5] it was 29.2 µM; in experiment [6], 39 µM. Moreover, the TGI in experiment [13] turned out to be 134 µM; in experiment [7] it was 26.6 µM; in experiment [9], 56.4 µM; in experiment [10] it was 47 µM; in [15] it was 25.3 µM; in experiment [11] it was 55.3 µM. For the same compound, the TGI in experiment [12] was 52.2 µM.

For `CCc1nn(CN2CCOCC2)c(=S)n1/N=C/c1ccc(-c2ccc(Cl)cc2)o1`, the TGI in experiment [1], in experiment [4], in experiment [5], in experiment [6], in experiment [13] and in experiment [7] was more than 100 µM throughout. For the same compound, the TGI in experiment [8], in experiment [9], in experiment [14], in experiment [15], in experiment [11] and in experiment [12] was more than 100 µM throughout.

For the compound `O=c1[nH]cc(COCCCO)c(=O)[nH]1`, the TGI in experiment [1], in experiment [2], in experiment [3], in [4], in experiment [5] and in experiment [6] was more than 100 µM in each case. For the same compound, the TGI in experiment [7], in experiment [8], in [9], in experiment [10], in experiment [15] and in experiment [11] was more than 100 µM each time. The same compound had a TGI in experiment [12] of more than 100 µM.

Regarding `COc1cc(C2SCC(=O)N2c2cccc(Cl)c2)cc(OC)c1OC` (configuration not stated), the TGI was 54.3 µM in [2]; more than 100 µM in experiment [4]; more than 100 µM in experiment [5]; more than 100 µM in [6]; more than 100 µM in experiment [13]; more than 100 µM in [8]. For the same compound, the TGI in experiment [9], in experiment [14], in [10], in experiment [15], in experiment [11] and in [12] was more than 100 µM throughout.

Turning to `CC(=O)CN(Cc1cc(C)c2c(c1)c1ccccc1n2Cc1ccccc1)S(=O)(=O)c1ccc(C)cc1`, the TGI in [1], in experiment [2], in experiment [3], in experiment [4], in experiment [5] and in experiment [6] was more than 100 µM each time. The TGI in experiment [7], in [8], in [10], in experiment [15], in experiment [11] and in [12] was more than 100 µM in each case.

`COC(=O)c1onc(-c2c(OC)cc(OC)cc2OC)c1C(=O)OC`: the TGI in experiment [1], in experiment [2], in experiment [3], in experiment [4], in experiment [5] and in [6] was more than 100 µM in each case. Besides, the TGI in experiment [7], in [8], in [9], in experiment [10], in [15] and in [11] was more than 100 µM throughout. The same compound yielded a TGI in experiment [12] of more than 100 µM.

Regarding `COc1cc2c(cc1OC)C1C=NC(C2)c2cc(OC)c(OC)cc21` (configuration not stated), the TGI in experiment [1], in experiment [2], in experiment [4], in [5], in [6] and in experiment [13] was more than 100 µM each time. Further, the TGI in experiment [7], in [8], in [9], in experiment [14], in [10] and in experiment [15] was more than 100 µM throughout. The TGI in experiment [11] and in experiment [12] was more than 100 µM each time.

Take `CCCNC(=O)C(C)C1CCC2(C)C=CC(=O)C(C)=C2C1O` (configuration not stated): the TGI in experiment [1], in [2], in [4], in experiment [5], in experiment [6] and in experiment [13] was more than 100 µM throughout. The TGI in experiment [7], in experiment [9], in experiment [10], in experiment [15], in experiment [11] and in experiment [12] was more than 100 µM in each case.

Turning to `CC1(C)OC(=O)C(C#N)=C1/C=C/c1coc2ccc(Cl)cc2c1=O`, the TGI in experiment [1] is 79.3 µM; in experiment [2], 89.8 µM; in experiment [3], 66.1 µM; in [4] it was 83.6 µM; in experiment [5] it was more than 100 µM; in [6], 53.5 µM. The TGI in experiment [7] is 53.5 µM; in experiment [8] it was more than 100 µM; in experiment [9] it was 87.2 µM; in experiment [10], more than 100 µM; in experiment [11] it was more than 100 µM; in experiment [12], more than 100 µM.

Consider `C=CC1(NC(=O)c2ccccc2)CCC(C(C)(C)C)CC1` (configuration not stated), for which the TGI in [1] was more than 90.5 µM; in experiment [2], 97.8 µM; in experiment [3] it was more than 94.9 µM; in experiment [4], 77.7 µM; in [5], more than 77 µM; in [6], 43.9 µM. Also, the TGI in experiment [13] was 76.1 µM; in [7], more than 81.5 µM; in [9] it was more than 85 µM; in experiment [10], 43.2 µM; in experiment [11], more than 100 µM; in experiment [12], more than 100 µM.

`CC1=NC(=Cc2cccc(Cl)c2)C(=O)N1n1c(-c2ccccc2)nc2ccccc2c1=O`: the TGI is 55.2 µM in experiment [1]; more than 100 µM in experiment [2]; 82.1 µM in [3]; more than 100 µM in experiment [4]; 70.3 µM in experiment [5]; more than 100 µM in experiment [6]. Besides, the TGI in [7], in experiment [8], in experiment [9], in [14], in [10] and in experiment [11] was more than 100 µM throughout. This compound also came in with a TGI in [12] of more than 100 µM.

Consider `COc1c(F)c(F)c(/C(O)=C\c2nc3ccccc3[nH]c2=O)c(F)c1F`, for which the TGI was more than 10 µM in [1]; more than 10 µM in [2]; more than 10 µM in [3]; more than 10 µM in experiment [5]; more than 10 µM in [6]; 6.01 µM in [7]. For the same compound, the TGI in [8], in experiment [9], in [14], in [10], in [15] and in [11] was more than 10 µM each time. The compound also yielded a TGI in experiment [12] of more than 10 µM.

`CC(=O)C1C(=O)C(=O)N(c2cccc([N+](=O)[O-])c2)C1=O` (configuration not stated): the TGI in experiment [1], in experiment [2], in experiment [4], in [5], in [6] and in [13] was more than 100 µM throughout. In addition, the TGI in [7], in experiment [8], in [9], in experiment [14], in experiment [10] and in experiment [15] was more than 100 µM in each case. Also, the TGI in experiment [11] and in experiment [12] was more than 100 µM in each case.

On to `c1ccc2c(c1)C1CCCCCC21N1CCOCC1` (configuration not stated), for which the TGI in [1], in [2], in [4], in experiment [5], in experiment [6] and in [7] was more than 100 µM each time. Further, the TGI in experiment [8], in experiment [9], in experiment [10], in experiment [11] and in experiment [12] was more than 100 µM in each case.

Take `CO/N=C(/C)c1ccc(NC(=O)CSc2nnc(-c3ccncc3)n2-c2ccccc2)cc1`: the GI50 in [8] was more than 100 µM; in [9] it was more than 100 µM; in experiment [10], more than 100 µM; in experiment [15] it was 2.32 µM; in experiment [11], more than 100 µM. Besides, the TGI is more than 100 µM in experiment [8]; more than 100 µM in [9]; more than 100 µM in experiment [10]; 6.07 µM in [15]; more than 100 µM in experiment [11].

Consider `COc1cccc(NC(=O)CSc2nnc(-c3ccc(NC(C)=O)cc3)o2)c1`, for which the TGI in experiment [1], in experiment [2], in [3], in [4], in experiment [5] and in experiment [6] was more than 100 µM throughout. Further, the TGI in experiment [7], in experiment [8], in experiment [9], in [10], in experiment [15] and in experiment [11] was more than 100 µM in each case. In experiment [12], this compound showed a TGI of more than 100 µM.

`C/C=C1\CN2CCc3c([nH]c4ccccc34)C2CC1C(=O)OC` (configuration not stated): the TGI in experiment [1], in experiment [2], in experiment [3], in experiment [5], in [6] and in [9] was more than 322 µM each time. Further, the TGI in [10], in [15], in experiment [11] and in experiment [12] was more than 322 µM throughout.

With `O=C(CCl)NNC1=Nc2ccc(Cl)cc2SC1`, the TGI is 31.8 µM in [1]; 5.46 µM in experiment [2]; 3.31 µM in experiment [3]; 3.49 µM in experiment [4]; 7.53 µM in experiment [5]; 6.54 µM in experiment [6]. Further, the TGI in [13] was 3.79 µM; in experiment [7], 5.14 µM; in experiment [9], 3.97 µM; in experiment [10] it was 3.47 µM; in experiment [15], 3.02 µM; in [11], 9.94 µM. The same compound returned a TGI in experiment [12] of 3.92 µM.

Consider `O=C(O)c1ccc(C2COc3ccc(Cl)cc3C2)cc1` (configuration not stated), for which the TGI in experiment [1], in [2], in experiment [3], in [4], in experiment [5] and in experiment [6] was more than 100 µM each time. In addition, the TGI in [7], in experiment [8], in experiment [9], in [10], in experiment [15] and in [11] was more than 100 µM throughout. Besides, the TGI in experiment [12] is more than 100 µM.

For the compound `COc1cc2c(c(OC)c1)/C(=C/Sc1ccccc1)C(=O)N(C(C)(C)C)C2`, the TGI in [1] was 83.8 µM; in experiment [2], 90 µM; in experiment [5], 85.3 µM; in experiment [6], 36.2 µM; in experiment [13], 56.7 µM; in experiment [9] it was 91.9 µM. In addition, the TGI was determined as 55.2 µM in experiment [14]; 50.6 µM in [10]; 38.8 µM in [15]; 66.1 µM in [11]; 39 µM in [12].
